Tested on: STZ mice
Experiment: Blood glucose in mouse type II diabetes model with pancreatic islet damage and obesity, STZ plus high-fat diet (Example 5)
Type: in vivo
Details: STZ + high-fat diet ICR mice; single agent 0.5 g/kg per day by gavage, two weeks; 1 h after last administration; mean ± SD
From the text: Effects of limonoid compound, acarbose or combination thereof on blood glucose in mouse type II diabetes model with pancreatic islet damage and obesity
In this example, a mouse model of type II diabetes with pancreatic islet damage and obesity was established by multiple modeling ICR mice with a small dose of streptozotocin (STZ), following with continuous high-fat diets (referring to literature: Zhang Jiyuan et al, Study on the effect of three plant extracts on improving glucose and lipid metabolism in type 2 diabetic mice, Food and Machinery, 2016, 32 (12): 142-147). […]
Experimental grouping: 15 male mice were randomly selected as the normal control group, and the remaining mice were subjected to a high-fat diet (high-fat diet formula: cholesterol 1%, egg yolk powder 10%, lard oil 10%, and basic feed 79%, for establishing an obesity mouse model) for consecutive 4 weeks and intraperitoneal injection of STZ at a dose of 35mg/kg for three consecutive days. After one week, the mice were subject to 24 hours of fasting and water deprivation, their fasting blood glucose was measured, and the mice with a blood glucose level of 15 to 25 mmol/L were selected and undifferentiatedly grouped and used in the experiment, continuously subjected to the high-fat diet, 15 mice in each group, and subjected to blood sampling and detection of indicators after 2 weeks of administration. […]

## C[C@H]1O[C@H](O[C@H]2[C@H](O)[C@@H](O)[C@@H](O[C@H]3[C@H](O)[C@@H](O)C(O)O[C@@H]3CO)O[C@@H]2CO)[C@H](O)[C@@H](O)[C@@H]1N[C@H]1C=C(CO)[C@@H](O)[C@H](O)[C@H]1O (stereo partly shown) [Acarbose, acarbose]
  Blood glucose value: 15.7 ± 3.0 mmol/L
